Like-named read-outs stand apart in the source and are kept apart here.
How the values were obtained:
[1] = tested on: methanogenic archaea (MA) in sewer biofilm; details: Exp. III
Text: (§1) Experiment III aimed to achieve complete inhibition on both sulfide and methane production.

[2] = tested on: sewer biofilm cells; details: Exp. III; FNA dosed in the reactors
Text: as §1

[3] = tested on: sulfate reducing bacteria (SRB) in sewer biofilm; details: Exp. III
Text: as §1

[4] = tested on: anaerobic sewer biofilms; test: Viability tests with biofilms on carriers from rising main sewer reactors (cell killing capacity, Table 2, FIG. 7-9); type: cell-based; details: for Inactivation of biofilm cells: agent by itself
Procedure: In these experiments, viability tests were carried out with biofilms on carriers from rising main sewer reactors. […]

[5] = tested on: sulfate reducing bacteria (SRB) in sewer biofilm; details: Exp. II
[6] = tested on: methanogenic archaea (MA) in sewer biofilm; details: Exp. II
[7] = tested on: sulfate reducing bacteria (SRB) in sewer biofilm; details: Exp. IV
[8] = tested on: methanogenic archaea (MA) in sewer biofilm; details: Exp. IV
[9] = tested on: sulfate reducing bacteria (SRB) in sewer biofilm; details: Exp. I
[10] = tested on: methanogenic archaea (MA) in sewer biofilm; details: Exp. I
[11] = FNA 0.18 and 0.36 mg-N/L, 24 hours, 4 dosages
[12] = one month after stopping FNA dosage
[13] = FNA 0.05, 0.08, 0.17 mg-N/L, single dose, 6 hour, pH 6.2
[14] = in the presence of nitrite, continuous dosing 24 days
[15] = nitrite 20 mg-N/L every 30 minutes for 24 days, pH 8.6~9.2 after dosing

O=NO [FNA, free nitrous acid]
Inhibition: methane production [1, 11]: Negligible sulfide
Recovery MA ([1]; in two months): MA: 40~60%
Methanogens activity recovery [1, 12]: 20%
Cells in the biofilm killed (FIG. 4B) [2]: over 90%
Inhibition: sulfide production [3, 11]: Negligible sulfide
Recovery SRB ([3]; in two months): SRB: 70-80% in
SRB recovery [3, 12]: about 70%
Inactivation of biofilm cells [4]: significantly inactivating biofilm cells
Microbial killing, ranking (FIG. 7) ([4]; nitrite 100 mgN/L, pH 6, FNA 0.26 mgN/L, 6 hr, H2O2 30 mg/L, O2 6 mg/L, caustic pH 10.5 for 2 hr after FNA): followed by FNA→Caustic, FNA+O2, and FNA
Inhibition: sulfide production [5, 13]: Negligible sulfide
Time to recover to 50% (SRB) ([5]; R4, highest FNA (0.17 mg-N/L), 6 hour contact): 16 days
Recovery SRB ([5]; after 1 month): SRB: 90%;
Inhibition: methane production [6, 13]: Negligible sulfide
Recovery MA ([6]; after 1 month): MA: 30~50%.
Methane after the FNA dosing ([6]; all FNA concentrations, 6 hour contact): below 20%
Sulfide production ([7]; Day 14): zero production
Sulfide production, of the initial level ([7]; after 7 days): 50%
Recovery SRB ([7]; in three weeks): SRB: 100% in
Methane production by sewer biofilm ([8]; one month after terminating dosage, 828 m downstream vs wet well): ceased to produce methane
Inhibition: methane production ([8]; real sewer, nitrite 100 mgN/L, pH 6.0, FNA 0.24 mgN/L, 33 hours over three days): Negligible sulfide

OO [H2O2, hydrogen peroxide, reference compound]
Effect on biocidal effect of acidified nitrite ([4]; H2O2 30 mg/L with nitrite 100 mgN/L at pH 6, 6 hr): enhanced the biocidal effect of acidified nitrite

[Na+].[OH-] [caustic shock, caustic soda, reference compound]
Inactivation of biofilm cells [4]: significantly inactivating biofilm cells

O=NO [nitrite]
Sulfide accumulation in the reactor [9, 14]: No sulfide and methane accumulation
Residual activity after treatment: SRB [9, 15]: SRB: 1 mg-S/L- mg-S/L-hr
Methane accumulation in the reactor [10, 14]: No sulfide and methane accumulation
Residual activity after treatment: MA [10, 15]: MA: 0.1 mg- mg-COD/L-hr
